Measured values: patent publication US11351178B2, “Selective HDAC6 inhibitors” (ITALFARMACO S.P.A., priority 2017, dated 2022)
Like-named read-outs stand apart in the source and are kept apart here.

Key:
[1] = tested on: peripheral blood mononuclear cells (PBMCs); assay: Cytotoxicity on PBMCs (CellTiter 96); format: cell-based; conditions: PBMC, 72 h; read-out: PBMC TOXICITY (72 h)
In short: (§1)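 Mitochondrial-function readout (CellTiter 96 Aqueous One) after 72 h compound exposure, begun 24 h post-seeding. Dose ranges: 697 cells, 1 to 10000 nM at 2×10^4 cells/well; PBMCs, 1.5 to 10000 nM at 5×10^5 cells/well.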

[2] = tested on: B 697 promyelocytic cell line; assay: Cytotoxicity on 697 cell line (CellTiter 96); format: cell-based; conditions: 72 hours incubation, read-out: 697 TOXICITY
In short: as §1

[3] = Stability in human plasma; format: in vitro ADME; conditions: after 4 hours, 37° C.
In short: (§2)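 Compounds incubated at 37° C in rat or human plasma at 50 μM (UV/HPLC) or 1 or 2 μM (LC-MS/MS) for 0–4 h. Reaction stopped with acidified acetonitrile on ice; percent remaining versus initial amount and plasma half-life calculated.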

recombinant human HDAC6 = target: T1, recombinant human HDAC6 (Homo sapiens, UniProt Q9UBN7); assay: Enzymatic screening on recombinant human HDAC6; format: biochemical; conditions: Table 2
T1 sequence (Q9UBN7 1-1215): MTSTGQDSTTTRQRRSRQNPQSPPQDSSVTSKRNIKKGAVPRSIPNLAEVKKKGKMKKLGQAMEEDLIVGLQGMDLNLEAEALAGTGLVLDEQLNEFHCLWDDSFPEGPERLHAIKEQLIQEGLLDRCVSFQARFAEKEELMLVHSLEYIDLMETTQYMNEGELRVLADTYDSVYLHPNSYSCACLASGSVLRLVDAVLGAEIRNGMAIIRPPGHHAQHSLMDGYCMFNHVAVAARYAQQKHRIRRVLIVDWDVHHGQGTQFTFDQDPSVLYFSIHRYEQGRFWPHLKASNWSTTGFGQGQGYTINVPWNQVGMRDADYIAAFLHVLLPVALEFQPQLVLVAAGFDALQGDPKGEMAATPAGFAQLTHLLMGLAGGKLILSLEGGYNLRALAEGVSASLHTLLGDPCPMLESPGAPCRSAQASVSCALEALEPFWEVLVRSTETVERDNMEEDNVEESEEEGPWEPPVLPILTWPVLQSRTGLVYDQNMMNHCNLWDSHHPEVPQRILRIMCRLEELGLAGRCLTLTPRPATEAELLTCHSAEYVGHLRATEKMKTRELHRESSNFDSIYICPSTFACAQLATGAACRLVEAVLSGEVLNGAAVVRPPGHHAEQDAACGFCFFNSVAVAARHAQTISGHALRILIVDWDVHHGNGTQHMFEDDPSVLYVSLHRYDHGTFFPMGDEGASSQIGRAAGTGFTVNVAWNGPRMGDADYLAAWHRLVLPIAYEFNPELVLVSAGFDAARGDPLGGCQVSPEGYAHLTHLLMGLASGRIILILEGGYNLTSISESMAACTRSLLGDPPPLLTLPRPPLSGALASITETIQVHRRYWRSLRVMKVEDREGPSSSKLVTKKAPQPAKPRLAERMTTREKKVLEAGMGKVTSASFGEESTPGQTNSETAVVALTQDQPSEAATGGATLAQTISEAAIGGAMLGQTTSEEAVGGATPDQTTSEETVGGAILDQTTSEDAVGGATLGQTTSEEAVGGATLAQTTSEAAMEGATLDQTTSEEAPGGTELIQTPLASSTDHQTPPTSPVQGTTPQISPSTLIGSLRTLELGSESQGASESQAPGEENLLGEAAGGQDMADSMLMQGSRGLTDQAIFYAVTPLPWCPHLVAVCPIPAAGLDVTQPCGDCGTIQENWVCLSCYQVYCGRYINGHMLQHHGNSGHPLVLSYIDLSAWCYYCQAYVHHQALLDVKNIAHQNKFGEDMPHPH
In short: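 Deacetylase activity of recombinant human isoforms is measured with FLUOR DE LYS, FLUOR DE LYS-Green or trifluoroacetyl-L-lysine substrates, supplied at 2× in 25 mM Tris-HCl, pH 8, 130 mM NaCl, 0.05% Tween-20, 10% glycerol. Both the enzyme-compound preincubation, of isoform-specific length, and the substrate reaction run at 30 °C.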

Stability in rat plasma = format: in vitro ADME; conditions: after 4 hours, 37° C.
In short: as §2

[4] = Stability to Phase I metabolism in human S9 liver fraction; format: in vitro ADME
In short: (§3)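 Phase I stability in human and rat hepatic S9 at 37 °C, sampled up to 90 min. Samples were stopped with acidified acetonitrile on ice, then quantified by HPLC-UV or LC-MS/MS.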

[5] = Stability to Phase I metabolism in rat S9 liver fraction; format: in vitro ADME; conditions: after 90 min, 37° C.
In short: as §3

| SMILES | residual percentage in human plasma [3] [%] | residual percentage in rat plasma (Stability in rat plasma) [%] | residual percentage in rat S9 fraction [5] [%] | IC50 (recombinant human HDAC6; read-out: HDAC6 IC50) [nM] | residual percentage in human S9 fraction ([4]; human, 90 min, pH 7.4) [%] | IC50 [1] [nM] | IC50 [2] [nM] | IC50 (recombinant human HDAC6; HDAC6 IC50 (nM)) [nM] | residual percentage in human S9 fraction ([4]; human liver S9 fraction, after 90 min, 37° C.) [%] |
| --- | --- | --- | --- | --- | --- | --- | --- | --- | --- |
| Cc1cc(-c2nnc(Sc3c(F)cc(C(=O)NO)cc3F)n2C)nn1C [comp. 100, 4-[[5-(1,5-dimethylpyrazol-3-yl)-4-methyl-1,2,4-triazol-3-yl]sulfanyl]-3,5-difluoro-benzenecarbohydroxamic acid] | 92 | 80 | 30 | – | – | 10000 | 7090 | 7 | 76 |
| Cn1c(Sc2c(F)cc(C(=O)NO)cc2F)nnc1-c1coc(CN2CCOCC2)c1 [comp. 203, 3,5-difluoro-4-[[4-methyl-5-[5-(morpholinomethyl)-3-furyl]-1,2,4-triazol-3-yl]sulfanyl]benzenecarbohydroxamic acid] | 95 | 94 | 58 | 14 | 74 | > 10000 | 15200 | – | – |
| Cn1c(Sc2c(F)cc(C(=O)NO)cc2F)nnc1-c1ccc(CCN2CCCC2)nc1 [comp. 210, 3,5-difluoro-4-[[4-methyl-5-[6-(2-pyrrolidin-1-ylethyl)-3-pyridyl]-1,2,4-triazol-3-yl]sulfanyl]benzenecarbohydroxamic acid] | 79 | 84 | 71 | 7 | 80 | > 10000 | 10400 | – | – |
| O=C(NO)c1ccc(Cc2noc(-c3ccccc3)n2)cc1 [compound 189, 4-[(5-phenyl-1,2,4-oxadiazol-3-yl)methyl]benzenecarbohydroxamic acid] | 100 | 78 | 5 | 9 | 72 | 1050 | 291 | – | – |

Now from value to molecule, other results behind:

| residual percentage in human plasma [3] [%] | residual percentage in rat plasma (Stability in rat plasma) [%] | residual percentage in rat S9 fraction [5] [%] | IC50 (recombinant human HDAC6; read-out: HDAC6 IC50) [nM] | residual percentage in human S9 fraction ([4]; human, 90 min, pH 7.4) [%] | SMILES | IC50 [1] [nM] | IC50 [2] [nM] | IC50 (recombinant human HDAC6; HDAC6 IC50 (nM)) [nM] | residual percentage in human S9 fraction ([4]; human liver S9 fraction, after 90 min, 37° C.) [%] |
| --- | --- | --- | --- | --- | --- | --- | --- | --- | --- |
| 100 | 94 | 61 | 17 | 84 | CC1(C)CC(=O)c2c(S(C)(=O)=O)sc(-c3nnn(Cc4ccc(C(=O)NO)cc4)n3)c2C1 [compound 74] | 2000 | 2280 | – | – |
| 96 | 98 | 76 | 28 | 77 | CN(C)S(=O)(=O)c1ccc(F)c(-c2nnc(Sc3ccc(C(=O)NO)cc3)n2C)c1 [compound 76] | > 10000 | > 10000 | – | – |
| 99 | 73 | 9 | 3 | 64 | O=C(NO)c1ccc(Cc2nnc(-c3ccccc3)s2)cc1 [compound 190, 4-[(5-phenyl-1,3,4-thiadiazol-2-yl)methyl]benzenecarbohydroxamic acid] | 983 | 333 | – | – |
